Tested on: Plasmodium falciparum Dd2 asexual blood stage parasites
Experiment: microbe, parasite or virus in culture
Set-up: species or system Plasmodium falciparum Dd2 in human erythrocytes; single determination (one 11-point concentration-response curve)
Details: Plasmodium falciparum, DD2, Erythrocyte, 72 h; read-out: AC50

SMILES | AC50 [µM]
O=C1CC2(CCN(CC3CCCCC3)CC2)Oc2cc(Cl)ccc21 [NCGC00476867-01] | 1.5
COc1cc2c(C(=O)N3CCN(c4cc(Cl)ccc4C)CC3)cn(CC(C)C)c(=O)c2cc1OC [NCGC00103751-01] | 15
COCC1CN(Cc2cc(F)cc(Br)c2)CC12CCNCC2 (stereo not drawn) [NCGC00461842-01] | 9.44
CCCNC(=O)N1CC(Oc2cccc(-c3nc(-c4ccccc4)no3)c2)C1 [NCGC00441277-01] | 13.3
Cc1ccc(NC(=O)Cn2c(-c3ccccc3)nc(C)c(CCO)c2=O)cc1Cl [NCGC00470911-01] | 10.6
CCO[C@H]1OC(C(=O)N2CCN(Cc3ccc4c(c3)OCO4)CC2)=C[C@@H](c2cn(C(C)=O)c3ccccc23)[C@@H]1CCCO [MLS000834466-01] | 8.41
CCCOC(=O)c1ccc(-c2c(C)noc2-c2ccc(OC)cc2O)o1 [MLS000097856-01] | 1.88
CC(C)CN(CCNC(=O)c1cc(-c2ccc(Cl)s2)nc2ccccc12)CC(C)C [NCGC00104475-01] | 7.5
CC(C)C[C@@H](NC(=O)[C@@H](O)[C@H](N)Cc1ccccc1)C(=O)O [NCGC00093685-01] | 2.99
COCCc1nn2c(=O)cc(COC(=O)C(c3ccccc3)c3ccccc3)nc2s1 [NCGC00129785-01] | 2.66
Cc1cccc(-n2c(/C=C/c3c(C)[nH]c4ccccc34)nc3ccccc3c2=O)c1 [NCGC00098794-01] | 3.76
COCCNC(=O)c1ccc(OC2CCN(C/C=C/c3ccc(F)cc3)CC2)c(Cl)c1 [NCGC00426935-01] | 10.6
CCOc1c(Cl)cc(CNC(C)C(O)c2ccccc2)cc1OC (stereo not drawn) [MLS000679789-01] | 6.68
CC(C)c1ccccc1NC(=O)Cn1cccc1-c1nc(-c2ccccc2)no1 [NCGC00445236-01] | 4.22
Cc1nn2c(c1-c1ccccc1[S+](C)(=O)[O-])N(CCC(C)C)CCC2 [NCGC00420381-01] | 9.68
COc1cccc(Nc2ccc3c(n2)C(C)(C(=O)N2CCCC2)CN(C)C3)c1 (stereo not drawn) [NCGC00414569-01] | 17.2
COc1ccc(-c2cc3ccc(O)c(CN4CCCC(C)C4)c3oc2=O)cc1 (stereo not drawn) [NCGC00134281-01] | 2.37
COc1cccc(CN2CCCC(N3CCN(c4cccc(C(F)(F)F)c4)CC3)C2)c1O (stereo not drawn) [NCGC00428830-01] | 0.841
CCCN1CCN(CCCNC(=O)c2ccc3c(c2)sc2nc(-c4ccc(OC)cc4)cn23)CC1 [NCGC00121829-01] | 4.73

SMILES | AC50 [µM]
CCc1cccc(-n2c(=O)c3cccnc3n2CC(=O)Nc2ccc(F)c(C)c2)c1 [NCGC00128424-01] | 2.66
COc1cc(OC)cc(-c2cc3nc4c(c(N5CCN(c6ncccn6)CC5)n3n2)CCCC4)c1 [MLS000035210-01] | 4.22
Cc1cc2nc3n(c(=O)c2n1CC(=O)Nc1ccccc1C(C)C)CCCCC3 [NCGC00455404-01] | 8.41
CN1CCN(C(=O)C(C)(C)Oc2nn(Cc3cccc(Cl)c3)c3ccccc23)CC1 [NCGC00419545-01] | 7.69
CC(C)C[C@@]12C(=O)N(c3cccc(Br)c3)C(=O)N1[C@H](c1ccc(F)cc1)[C@@H]1C(=O)N(C3CCCCC3)C(=O)[C@@H]12 [MLS001074979-01] | 7.5
c1ccc(-c2ccc3ncc(Nc4cccnc4)n3n2)cc1 [NCGC00412518-01] | 4.85
Cn1cc(C(=O)NCCN2CCN(c3cccc(Cl)c3)CC2)c2c3ccccc3n(C)c2c1=O [MLS000086993-01] | 4.73
O=C(CN1CCC(n2nnc3cc(F)ccc32)CC1)Nc1ccccc1N1CCOCC1 [MLS000030185-01] | 5.31
CCOC(=O)c1cc(C)n(Cc2ccc(OCC)c(OC)c2)c1C [MLS000521227-01] | 10.6
OC(CNCc1cccc(Br)c1)c1ccccc1 (stereo not drawn) [MLS000676112-01] | 5.96
O=C(NCCN1CCCC1)C1CN([S+](=O)([O-])c2cccs2)CC12CCCCC2 (stereo not drawn) [NCGC00439935-01] | 13.3
COc1ccc(-c2cc(C(=O)Nc3cc(OC)cc(C(=O)Nc4cccc(C(F)(F)F)c4)c3)[nH]n2)cc1 [MLS003105955-01] | 5.31
COc1ccc(C2=C(Nc3ccccc3)c3ccccc3C2=O)cc1 [MLS000572234-01] | 9.44
COc1cccc(C(=O)N2CCC(N3C[C@H](O)C[C@H]3C(=O)N3CCc4ccccc4C3)CC2)c1 [NCGC00460061-01] | 8.41
CCOC(=O)c1nnn(-c2nonc2N)c1-c1ccc(Br)cc1 [MLS000727795-01] | 2.66
CC(C)CCN1CCC(N2CCN([S+](=O)([O-])c3ccc4c(c3)CCCC4)CC2)C1=O (stereo not drawn) [NCGC00472995-01] | 9.44
Cc1ccc(/C=N/NC(=O)c2nnn(-c3nonc3N)c2-c2ccc3c(c2)OCO3)s1 [MLS001142659-01] | 0.841
CCOc1cccc(CC(=O)Nc2ccc3nc(N4CCCCC4)cc(C)c3c2)c1OCC [NCGC00137846-01] | 6.68
COc1cncc(Nc2cnc3ccc(-c4ccc(OC)c(OC)c4)nn23)c1 [NCGC00412563-01] | 1.22

SMILES | AC50 [µM]
Cc1ccccc1NC(=O)c1cc2c(-c3ccccc3)nn(-c3ccccc3)c2s1 [NCGC00102094-01] | 11.9
COc1ccc(CC(=O)NCc2ccccn2)cc1OC [MLS000039135-01] | 7.5
CCN(CCCNC(=O)c1nn(-c2ccc(OC)c(Cl)c2)c(=O)c2c1c1ccccc1n2C)c1cccc(C)c1 [NCGC00108898-01] | 15
COCCN1C(=O)c2ccccc2C(C(=O)Nc2nc3ccccc3[nH]2)C12CCCC2 (stereo not drawn) [NCGC00423488-01] | 4.22
Cc1cc2c(c3oc(=O)c4ccccc4c13)CN(Cc1ccc(F)cc1)CO2 [NCGC00116338-01] | 2.66
Cc1ccccc1N(C)C1CN(Cc2ccc(C#N)cc2)C1 [NCGC00476680-01] | 3.85
Cc1ccc(NC(=O)N2CCC(N3C(=O)C4(CCCCC4)C3c3ccncc3)CC2)cc1C (stereo not drawn) [NCGC00461123-01] | 7.5
COc1ccccc1C(=O)N1CCC2(CC1)OC(=O)N(CCOc1ccccc1)C2(C)c1cccnc1 (stereo not drawn) [NCGC00415508-01] | 9.44
CCOc1cc(C(=O)N2CCC(CC3CC(c4ccc(Cl)cc4)=NO3)(C(=O)NCC3CCCCC3)CC2)cc(OCC)c1OCC (stereo not drawn) [MLS001143937-01] | 0.841
CCC(=O)O[C@]1(C(=O)CCl)[C@@H](C)C[C@H]2[C@@H]3C[C@H](F)C4=CC(=O)C=C[C@]4(C)[C@@]3(F)[C@@H](O)C[C@@]21C [NCGC00167451-01] | 10.6
O=c1c2c([nH]c3ccccc13)CCCC2 [MLS000551004-01] | 6.68
CN(Cc1ccccc1)Cc1cc(C[C@@H]2CC[C@H](O)[C@@H](CNCc3ccccc3)O2)no1 [NCGC00393466-01] | 4.73
CNC(=O)c1cc(-c2ccnc(N3CCOCC3)c2)cc2c1OCCN2Cc1cccnc1 [NCGC00417111-01] | 8.41
CCc1cc(C(=O)OC)c(NC(=O)CN2CCN(C(=O)c3ccco3)CC2)s1 [MLS001034503-01] | 5.96
Cc1cc(Oc2c(C(F)(F)F)oc3c(CN4CCC(C)CC4)c(O)ccc3c2=O)cc(C)c1Cl [NCGC00101140-01] | 0.75
O=C(NC1CCCC1)c1ccc(OC2CCN(CCCC(F)(F)F)CC2)c(Cl)c1 [NCGC00429036-01] | 9.44
O=C1N=C(NC2CCCCC2)C2(CCN(Cc3ccccc3)C2)N1c1cc(F)cc(F)c1 (stereo not drawn) [NCGC00374188-01] | 4.22
COc1ccc2c(CNCc3ccccc3OC)c(C(=O)O)n(Cc3ccc(F)cc3Cl)c2c1 [NCGC00122363-01] | 15
Cc1ccccc1Oc1nc(-c2ccccn2)nc2ccccc12 [MLS000769500-01] | 6.68

From PMC7822874, “Chemoprotective antimalarials identified through quantitative high-throughput screening of Plasmodium blood and liver stage parasites” (Scientific Reports, 2021)
